Assay results: patent US20220096454A1, “CARBOXYLIC ACID DERIVATIVES” (Merck Patent GmbH, priority 2018, published 2022)

Legend:
TNKS1 = molecular target: T1, TNKS1 (Homo sapiens, UniProt O95271); experiment: TNKS1 activity ELISA (autoparsylation assay); format: biochemical; details: GST-tagged Tnks-1 (1023-1327 aa), 10 μM bio-NAD, 1 hour at 30° C.
T1 construct: GST-tagged Tnks-1 (1023-1327 aa, prepared in-house); made in house
Experimental: (§1) Description of the TNKS1 and TNKS2 ELISA Assay
(§2) Biochemical activity testing of TNKS 1 and 2: activity ELISA (Autoparsylation assay)
(§3) For analysis of autoparsylation activity of TNKS 1 and 2 an activity ELISA is performed: In the first step GST tagged TNKS is captured on a Glutathione coated plate. Then the activity assay with biotinylated NAD is performed in the absence/presence of the compounds. During the enzymatic reaction GST tagged TNKS transfers biotinylated ADP-ribose to itself from biotinylated NAD as co-substrate. For the detection streptavidin-HRP conjugate is added that binds to the biotinylated TNKS and is thereby captured to the plates. The amount of biotinylated resp. autoparsylated TNKS is detected with a luminescence substrate for HRP. The level of the luminescence signal correlates directly with the amount of autoparsylated TNKS and therefore with activity of TNKS.
(§4) The activity ELISA is performed in 384 well Glutathione coated microtiter plates (Express capture Glutathione coated plate, Biocat, Heidelberg, Germany). The plates are pre-equilibrated with PBS. […] The plates are washed 3 times with PBS-Tween-20. The wells are blocked by incubation at room temperature for 20 minutes with 50 μl blocking buffer (PBS, 0.05% Tween-20, 0.5% BSA). Afterwards the plates are washed 3 times with PBS-Tween-20. […] The reaction is stopped by 3 times washing with PBS-Tween-20. For the detection 50 μl of 20 ng/μl Streptavidin, HRP conjugate (MoBiTec, Göttingen, Germany) in PBS/0.05% Tween-20/0.01% BSA are added and the plates are incubated for 30 minutes at room temperature. After three times washing with PBS-Tween-20 50 μl of SuperSignal ELISA Femto Maximum sensitivity substrate solution (ThermoFisherScientific (Pierce), Bonn, Germany) are added. Following a 1 minute incubation at room temperature luminescence signals are measured with an Envision multimode reader (Perkin Elmer LAS Germany GmbH) at 700 nm. The full value used is the inhibitor-free reaction. […] The inhibitory values (IC50) are determined using either the program Symyx Assay Explorer® or Condosseo® from GeneData.

Tankyrases = details: read-out: EC50 [M] TNKS cellular assay; increase of Axin2 level in colon carcinoma cell line DLD1, 24 hours
Experimental: Measurement of Cellular Inhibition of Tankyrase
Cells of the colon carcinoma cell line DLD1 are plated in 96 well plates with 1.5×10^4 cells per well. Next day, cells are treated with a serial dilution of test compound in seven steps as triplicates with a final DMSO concentration of 0.3%. […] The amount of isolated Axin2 protein is determined in a Luminex^200 machine (Luminex Corporation) according to the manufacturer's instruction by counting 100 events per well. […] As controls cells are treated with solvent alone (neutral control) and with a Tankyrase reference inhibitor IWR-2 (3E−06 M) which refers as control for maximum increase of Axin2. For analysis, the obtained data are normalized against the untreated solvent control and fitted for determination of the EC50 values using the Assay Explorer software (Accelrys).

TNKS2 = molecular target: T2, TNKS2 (Homo sapiens, UniProt Q9H2K2); experiment: TNKS2 activity ELISA (autoparsylation assay); format: biochemical; details: GST-tagged Tnks-2 (873-1166 aa), 10 μM bio-NAD, 1 hour at 30° C.
T2 construct: GST-tagged Tnks-2 (873-1166 aa, prepared in-house); made in house
T2 sequence (Q9H2K2 873-1166): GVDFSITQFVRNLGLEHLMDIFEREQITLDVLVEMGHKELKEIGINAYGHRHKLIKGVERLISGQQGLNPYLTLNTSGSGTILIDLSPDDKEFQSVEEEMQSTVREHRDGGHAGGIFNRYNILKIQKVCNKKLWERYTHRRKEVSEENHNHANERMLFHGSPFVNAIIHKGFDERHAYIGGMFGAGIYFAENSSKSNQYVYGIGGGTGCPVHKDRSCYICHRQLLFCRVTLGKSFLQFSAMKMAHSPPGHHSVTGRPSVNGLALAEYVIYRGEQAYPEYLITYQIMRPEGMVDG
Experimental: as §1, §2, §3, §4

T1 sequence (O95271 1023-1327): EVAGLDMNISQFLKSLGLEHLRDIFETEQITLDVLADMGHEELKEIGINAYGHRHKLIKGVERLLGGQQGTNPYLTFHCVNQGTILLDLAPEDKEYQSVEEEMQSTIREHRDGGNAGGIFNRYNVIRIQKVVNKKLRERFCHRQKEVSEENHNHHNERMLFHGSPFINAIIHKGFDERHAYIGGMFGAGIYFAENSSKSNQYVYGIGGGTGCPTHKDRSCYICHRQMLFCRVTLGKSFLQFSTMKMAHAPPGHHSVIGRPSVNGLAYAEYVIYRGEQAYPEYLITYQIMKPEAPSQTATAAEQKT

Row | Compound | IC50 (TNKS1) | EC50 (Tankyrases) | IC50 (TNKS2)
1 | COc1ccc(N(C)C(=O)N2CCC(C(=O)c3ccc4c(c3)cc(C(=O)O)n4C)CC2)cc1 [Compound C7, 5-{1-[(4-Methoxy-phenyl)-methyl-carbamoyl]-piperidine-4-carbonyl}-1-methyl-1H-indole-2-carboxylic Acid] | 1.3 nM | 6.31e-08 M | 1.3 nM
2 | CCN(C(=O)N1CCC(C(=O)c2ccc3cnn(C)c3c2)CC1)c1cccc(C(=O)O)c1 [Compound C20, 3-{Ethyl-[4-(1-methyl-1H-indazole-6-carbonyl)-piperidine-1-carbonyl]-amino}-benzoic Acid] | 0.58 nM | 1.93e-07 M | 0.65 nM
3 | CCN(C(=O)N1CCC(C(=O)c2ccc3cc(C(=O)O)n(C)c3c2)CC1)c1ccc(F)cc1 [Compound C2, 6-{1-[Ethyl-(4-fluoro-phenyl)-carbamoyl]-piperidine-4-carbonyl}-1-methyl-1H-indole-2-carboxylic Acid] | 0.67 nM | 1.9e-08 M | 0.49 nM
4 | CN(C(=O)N1CCC(C(=O)c2ccc3ncn(C)c3c2)CC1)c1ccc(C(=O)O)cc1 [Compound C26, 4-{Methyl-[4-(3-methyl-3H-benzoimidazole-5-carbonyl)-piperidine-1-carbonyl]-amino}-benzoic Acid] | 1.5 nM | 1.1e-06 M | 0.62 nM
5 | CN(C(=O)N1CCC(C(=O)c2ccc3c(c2)c(C(=O)O)nn3C)CC1)c1ccc(F)cc1 [Compound C13, 5-{1-[(4-Fluoro-phenyl)-methyl-carbamoyl]-piperidine-4-carbonyl}-1-methyl-1H-indazole-3-carboxylic Acid] | 115 nM |  | 49.9 nM
6 | CCN(C(=O)N1CCC(C(=O)c2ccc3ncn(C)c3c2)CC1)c1cccc(C(=O)O)c1 [Compound C29, 3-{Ethyl-[4-(3-methyl-3H-benzimidazole-5-carbonyl)-piperidine-1-carbonyl]-amino}-benzoic Acid] | 3.4 nM | 4.75e-06 M | 3 nM
7 | CN(C(=O)N1CCC(C(=O)c2ccc3cnn(C)c3c2)CC1)c1ccc(C(=O)O)cc1 [Compound C17, 4-{Methyl-[4-(1-methyl-1H-indazole-6-carbonyl)-piperidine-1-carbonyl]-amino}-benzoic Acid] | 1.32 nM | 2.07e-07 M | 0.798 nM
8 | CN(C(=O)N1CCC(C(=O)c2ccc3c(cnn3C)c2)CC1)c1ccc(C(=O)O)cc1 [Compound C22, 4-{Methyl-[4-(1-methyl-1H-indazole-5-carbonyl)-piperidine-1-carbonyl]-amino}-benzoic Acid] | 7.6 nM | 3.46e-07 M | 3.9 nM
9 | COc1ccc(N(C)C(=O)N2CCC(C(=O)c3ccc4c(C(=O)O)nn(C)c4c3)CC2)cc1 [Compound C11, 6-{1-[(4-Methoxy-phenyl)-methyl-carbamoyl]-piperidine-4-carbonyl}-1-methyl-1H-indazole-3-carboxylic Acid] | 1.4 nM | 3.9e-06 M | 0.74 nM
10 | CCN(C(=O)N1CCC(C(=O)c2ccc3c(c2)ncn3C)CC1)c1cccc(C(=O)O)c1 [Compound C33, 3-{Ethyl-[4-(1-methyl-1H-benzimidazole-5-carbonyl)-piperidine-1-carbonyl]-amino}-benzoic Acid] | 3.3 nM | 3.6e-06 M | 1.5 nM
11 | CN(C(=O)N1CCC(C(=O)c2ccc3cc(C(=O)O)n(C)c3c2)CC1)c1ccc(F)cc1 [Compound C1, 6-{1-[(4-Fluoro-phenyl)-methyl-carbamoyl]-piperidine-4-carbonyl}-1-methyl-1H-indole-2-carboxylic Acid] | 3.5 nM | 2.1e-07 M | 1.1 nM
12 | CN(C(=O)N1CCC(C(=O)c2ccc3c(C(=O)O)nn(C)c3c2)CC1)c1ccc(F)cc1 [Compound C9, 6-{1-[(4-Fluoro-phenyl)-methyl-carbamoyl]-piperidine-4-carbonyl}-1-methyl-1H-indazole-3-carboxylic Acid] | 3.29 nM | 4.9e-06 M | 1.66 nM
13 | CCN(C(=O)N1CCC(C(=O)c2ccc3nnn(C)c3c2)CC1)c1ccc(C(=O)O)cc1 [Compound C35, 4-{Ethyl-[4-(3-methyl-3H-benzotriazole-5-carbonyl)-piperidine-1-carbonyl]-amino}-benzoic Acid] | 0.472 nM | 3.1e-07 M | 0.192 nM
14 | CN(C(=O)N1CCC(C(=O)c2ccc3c(c2)cc(C(=O)O)n3C)CC1)c1ccc(F)cc1 [Compound C5, 5-{1-[(4-Fluoro-phenyl)-methyl-carbamoyl]-piperidine-4-carbonyl}-1-methyl-1H-indole-2-carboxylic acid] | 1 nM | 7.4e-08 M | 1.4 nM
15 | CCN(C(=O)N1CCC(C(=O)c2ccc3c(c2)cc(C(=O)O)n3C)CC1)c1ccc(F)cc1 [Compound C6, 5-{1-[Ethyl-(4-fluoro-phenyl)-carbamoyl]-piperidine-4-carbonyl}-1-methyl-1H-indole-2-carboxylic Acid] | 0.41 nM | 5.9e-09 M | 1.4 nM
16 | CN(C(=O)N1CCC(C(=O)c2ccc3c(cnn3C)c2)CC1)c1cccc(C(=O)O)c1 [Compound C24, 3-{Methyl-[4-(1-methyl-1H-indazole-5-carbonyl)-piperidine-1-carbonyl]-amino}-benzoic Acid] | 1.3 nM | 6.4e-07 M | 0.63 nM
17 | CN(C(=O)N1CCC(C(=O)c2ccc3cnn(C)c3c2)CC1)c1ccc(C(=O)O)nc1 [Compound C21, 5-{Methyl-[4-(1-methyl-1H-indazole-6-carbonyl)-piperidine-1-carbonyl]-amino}-pyridine-2-carboxylic Acid] | 37 nM | 1.5e-05 M | 14 nM
18 | CCN(C(=O)N1CCC(C(=O)c2ccc3c(c2)c(C(=O)O)nn3C)CC1)c1ccc(F)cc1 [Compound C14, 5-{1-[Ethyl-(4-fluoro-phenyl)-carbamoyl]-piperidine-4-carbonyl}-1-methyl-1H-indazole-3-carboxylic Acid] | 12.4 nM | 9.4e-06 M | 5.91 nM
19 | CN(C(=O)N1CCC(C(=O)c2ccc3c(c2)ncn3C)CC1)c1ccc(C(=O)O)cc1 [Compound C30, 4-{Methyl-[4-(1-methyl-1H-benzimidazole-5-carbonyl)-piperidine-1-carbonyl]-amino}-benzoic Acid] | 17 nM | 6e-06 M | 10 nM
20 | CCN(C(=O)N1CCC(C(=O)c2ccc3c(c2)ncn3C)CC1)c1ccc(C(=O)O)cc1 [Compound C31, 4-{Ethyl-[4-(1-methyl-1H-benzimidazole-5-carbonyl)-piperidine-1-carbonyl]-amino}-benzoic Acid] | 3.5 nM | 3.69e-07 M | 2.6 nM
21 | COc1ccc(N(C)C(=O)N2CCC(C(=O)c3ccc4cc(C(=O)O)n(C)c4c3)CC2)cc1 [Compound C3, 6-{1-[(4-Methoxy-phenyl)-methyl-carbamoyl]-piperidine-4-carbonyl}-1-methyl-1H-indole-2-carboxylic Acid] | 1.8 nM | 1.3e-07 M | 2.7 nM
22 | CN(C(=O)N1CCC(C(=O)c2ccc3nnn(C)c3c2)CC1)c1ccc(C(=O)O)cc1 [Compound C34, 4-{Methyl-[4-(3-methyl-3H-benzotriazole-5-carbonyl)-piperidine-1-carbonyl]-amino}-benzoic Acid] | 2.6 nM | 3.2e-06 M | 1.1 nM
23 | CCN(C(=O)N1CCC(C(=O)c2ccc3c(C(=O)O)nn(C)c3c2)CC1)c1ccc(F)cc1 [Compound C10, 6-{1-[Ethyl-(4-fluoro-phenyl)-carbamoyl]-piperidine-4-carbonyl}-1-methyl-1H-indazole-3-carboxylic Acid] | 0.744 nM | 4.6e-07 M | 0.432 nM
24 | CN(C(=O)N1CCC(C(=O)c2ccc3ncn(C)c3c2)CC1)c1cccc(C(=O)O)c1 [Compound C28, 3-{Methyl-[4-(3-methyl-3H-benzimidazole-5-carbonyl)-piperidine-1-carbonyl]-amino}-benzoic Acid] | 53 nM |  | 23 nM
25 | CN(C(=O)N1CCC(C(=O)c2ccc3c(c2)ncn3C)CC1)c1cccc(C(=O)O)c1 [Compound C32, 3-{Methyl-[4-(1-methyl-1H-benzimidazole-5-carbonyl)-piperidine-1-carbonyl]-amino}-benzoic Acid] | 19 nM |  | 7.8 nM
